The values that follow come from ChEMBL document CHEMBL1138966 (Bioorg Med Chem Lett, 2006).

In brackets after ≈: the same amount, converted by molar mass.

In data set [1] the target is Human immunodeficiency virus type 1 integrase (Human immunodeficiency virus 1, UniProt Q7ZJM1). Put plainly: Inhibition of strand transfer activity of HIV integrase.
In data set [2] the test system is Human immunodeficiency virus 1. Put plainly: Antiviral activity against HIV1 3B in MT4 cells. Type of data set: functional, organism-based. The note with it: Human immunodeficiency virus 1, 3B.
A further data set deals with MT4. Briefly: Cytotoxicity against MT4 cells. Type of data set: functional. The note with it: Homo sapiens.
A further data set in a line: physchem. The settings on record: buffer, pH 7.3.
In data set [3] the test system is Human immunodeficiency virus 1. Briefly: Antiviral activity against HIV1 3B in MT2 cells. The note with it: Human immunodeficiency virus 1, 3B. The data set is classed as functional, organism-based.
The subject of data set [4] is Human immunodeficiency virus 1. Briefly: Antiviral activity against HIV1 3B assessed as protein binding effect in MT2 cells. The data set is classed as functional, organism-based. The note with it: Human immunodeficiency virus 1, 3B.
The conditions of data set [5]: buffer, pH 7.3.

Chain of Human immunodeficiency virus type 1 integrase (Q7ZJM1 whole entry): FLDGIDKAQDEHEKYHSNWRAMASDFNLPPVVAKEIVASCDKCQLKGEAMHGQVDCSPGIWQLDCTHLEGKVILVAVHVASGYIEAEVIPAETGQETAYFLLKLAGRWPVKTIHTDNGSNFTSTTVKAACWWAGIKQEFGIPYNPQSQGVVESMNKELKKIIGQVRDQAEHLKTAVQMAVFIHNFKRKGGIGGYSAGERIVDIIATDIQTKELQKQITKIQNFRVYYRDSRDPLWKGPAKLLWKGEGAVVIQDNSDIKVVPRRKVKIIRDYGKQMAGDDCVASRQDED

What is called IC50 is the concentration that inhibits the measured activity by half. The low end stands for inhibition by little substance, the high end for a need for much substance. What is called EC50 is the concentration needed to bring the measured effect to its halfway point. For orientation: CC50 means the concentration that lowers cell viability or growth by half. The low end stands for greater toxicity to the cells, the high end for lower toxicity to the cells. In data set [1], `CCOC(=O)c1ccccc1-c1c2c(c(O)c3ncccc13)C(=O)N(Cc1ccc(F)cc1)C2` yielded an IC50 of 0.35 µM. This compound displayed an EC50 in data set [2] of 0.07 µM. The same compound returned a CC50 in the data set with MT4 of 0.4 µM.
For orientation: solubility means how much of the substance goes into solution per volume. A lower solubility goes with a poorly soluble substance. Take `COc1c2c(c(O)c3ncccc13)C(=O)N(Cc1ccc(F)cc1)C2=O`: in data set [1], 0.08 µM corresponded to half-maximal inhibition (IC50). This compound yielded an EC50 in data set [2] of 7.5 µM. Further, the midpoint of cytotoxicity with MT4, the CC50, lay at 19 µM. In “physchem”, the solubility is under 1.4 µM.
Consider `O=C(NCc1ccc(F)cc1)c1ccc2cccnc2c1O`, for which it took 2 µM to reach half-maximal inhibition in data set [1] (IC50). In addition, the EC50 in data set [2] is over 10 µM.
As to `CN(C)C(=O)Oc1c2c(c(O)c3ncccc13)C(=O)N(Cc1ccc(F)cc1)C2`, the IC50 in data set [1] amounted to 0.76 µM. In data set [2], this compound returned an EC50 of 0.003 µM. In addition, it took 1.5 µM to reach half-maximal cytotoxicity with MT4 (CC50).
`CCOc1ccc(-c2c3c(c(O)c4ncccc24)C(=O)N(Cc2ccc(F)cc2)C3)cc1` gave an IC50 in data set [1] of 1.2 µM. Also, in data set [2], the EC50 was 0.78 µM. The CC50 with MT4 came out at 1 µM.
Taken in the same sequence, the figures for `COc1c2c(c(O)c3ncccc13)C(=O)N(Cc1ccc(F)cc1)C2` were 0.05 µM, 0.089 µM and 5.1 µM.
Take `CCOC(=O)c1cccc(-c2c3c(c(O)c4ncccc24)C(=O)N(Cc2ccc(F)cc2)C3)c1`: in data set [1], half-maximal inhibition (IC50) was put at 2.1 µM. Further, the concentration giving a half-maximal response (EC50) in data set [2] is 0.34 µM. Further, the CC50 in the data set on MT4 stood at 1 µM.
Taken in the same sequence, the figures for `O=C1c2c(c(-c3c(F)cccc3F)c3cccnc3c2O)CN1Cc1ccc(F)cc1` were 0.335 µM, 0.011 µM and 0.3 µM.
In the case of `CN(C)C(=O)Oc1c2c(c(O)c3ncccc13)C(=O)N(Cc1ccc(F)cc1)C2=O`, the IC50 in data set [1] worked out at 2.4 µM; in data set [2] it was 1.18 µM. Also, half-maximal cytotoxicity in the data set on MT4 (CC50) was put at 22 µM. The same compound returned a solubility in the data set “physchem” of 2.5 µM (≈ 1.02 µg/mL).
Turning to `O=C1c2c(c(C(=O)N3CCOCC3)c3cccnc3c2O)CN1Cc1ccc(F)cc1`, in data set [1], half-maximal inhibition (IC50) was put at 0.036 µM. For the same compound, the values for the EC50 in data set [3] and in data set [4] were 0.0034 µM and 0.054 µM, respectively. Also, the midpoint of cytotoxicity with MT4, the CC50, lay at 4 µM. The compound further registered a solubility in the data set “physchem” of 97 µM (≈ 40.9 µg/mL).
For the compound `O=C(NCc1ccc(F)cc1)c1nc(N2CCCCS2(=O)=O)c2cccnc2c1O`, in data set [1], the concentration for half-maximal inhibition (IC50) stood at 0.05 µM. For the same compound, the results for the EC50 in data set [3] and in data set [4] were 0.0038 µM and 0.088 µM, respectively. Further, in the data set on MT4, the half-maximal cytotoxic concentration (CC50) is 1.5 µM. Besides, the solubility in data set [5] came to 7.2 µM (≈ 3.1 µg/mL).
In the case of `O=C(NCc1ccccn1)c1c2c(c(O)c3ncccc13)C(=O)N(Cc1ccc(F)cc1)C2`, in data set [1], the IC50 was 0.19 µM. Further, the half-maximal effective concentration (EC50) came to 0.0098 µM in data set [3] and 0.094 µM in data set [4]. Besides, in the data set on MT4, the cytotoxic concentration (CC50) turned out to be 1.6 µM. The amount in solution in the data set “physchem” (solubility) came to 36 µM (≈ 15.9 µg/mL).
Turning to `O=C1c2c(cc3cccnc3c2O)CN1Cc1ccc(F)cc1`, the concentration for half-maximal inhibition (IC50) in data set [1] was found to be 0.07 µM; in data set [2] it was 0.1 µM.
